The structures appear in SMILES notation.

This test relates to iNKT. Nature of the test: Induction of cellular expansion in human iNKT cells at 250 nM after 8 days. Format: functional.

`CCCCC/C=C\C/C=C\CCCCCCCCCC(=O)N[C@@H](CO[C@H]1O[C@H](CO)[C@H](O)[C@H](O)[C@H]1O)[C@H](O)[C@H](O)CCCCCCCCCCCCCC` showed an Activity of 37%.

`CCCCCCCCCCCCCCCCCCCCCCCCCC(=O)N[C@@H](CO[C@H]1O[C@H](CO)[C@H](O)[C@H](O)[C@H]1O)[C@H](O)[C@H](O)CCCCCCCCCCCCCC` [RGI-7000] displayed an Activity of 34%.

`CCCCC/C=C\C/C=C\CCCCCCCCCC(=O)N[C@@H](CO[C@H]1O[C@H](CO)[C@@H](O)[C@H](O)[C@H]1O)[C@H](O)[C@H](O)CCCCCCCCCCCCCC` returned an Activity of 33%.

Source of the values: ChEMBL document CHEMBL1158633, “Synthesis and biological activity of alpha-glucosyl C24:0 and C20:2 ceramides” (2010).
